This is an account of results in PMC4399336 (2015).

The experiment relates to 15 base pair dsDNA, double labeled (Alexa488 / Alexa568) (DNA, duplex) GGAGACCAGAGGCCT/AGGCCTCTGGTCTCC
Kind of experiment: FRET and fluorescence lifetime titration (donor 517 nm, acceptor 600 nm). To be noted: 20 °C; 1 μM DNA; intercalation, qualitative; end-to-end distance ratio r1/r0 1.028; buffer not stated.

`[Ru+2].c1ccc(-c2ccccn2)nc1.c1ccc(-c2ccccn2)nc1.c1ccc2nc3c4cccnc4c4ncccc4c3nc2c1`: the binding result is “yes”.
